The text below walks through data of patent US9663529B2, “Tricyclic pyrido-carboxamide derivatives as rock inhibitors” (BRISTOL-MYERS SQUIBB COMPANY, priority 2013, dated 2017).

The target in this assay is ROCK2 (Homo sapiens (Human), UniProt O75116). Kind of assay: ROCK assay (Caliper LABCHIP peptide phosphorylation, 5 μM ATP). Type of assay: biochemical. The settings on record: 1.5 μM peptide substrate.
ROCK2, sequence (O75116 whole entry, species assumed): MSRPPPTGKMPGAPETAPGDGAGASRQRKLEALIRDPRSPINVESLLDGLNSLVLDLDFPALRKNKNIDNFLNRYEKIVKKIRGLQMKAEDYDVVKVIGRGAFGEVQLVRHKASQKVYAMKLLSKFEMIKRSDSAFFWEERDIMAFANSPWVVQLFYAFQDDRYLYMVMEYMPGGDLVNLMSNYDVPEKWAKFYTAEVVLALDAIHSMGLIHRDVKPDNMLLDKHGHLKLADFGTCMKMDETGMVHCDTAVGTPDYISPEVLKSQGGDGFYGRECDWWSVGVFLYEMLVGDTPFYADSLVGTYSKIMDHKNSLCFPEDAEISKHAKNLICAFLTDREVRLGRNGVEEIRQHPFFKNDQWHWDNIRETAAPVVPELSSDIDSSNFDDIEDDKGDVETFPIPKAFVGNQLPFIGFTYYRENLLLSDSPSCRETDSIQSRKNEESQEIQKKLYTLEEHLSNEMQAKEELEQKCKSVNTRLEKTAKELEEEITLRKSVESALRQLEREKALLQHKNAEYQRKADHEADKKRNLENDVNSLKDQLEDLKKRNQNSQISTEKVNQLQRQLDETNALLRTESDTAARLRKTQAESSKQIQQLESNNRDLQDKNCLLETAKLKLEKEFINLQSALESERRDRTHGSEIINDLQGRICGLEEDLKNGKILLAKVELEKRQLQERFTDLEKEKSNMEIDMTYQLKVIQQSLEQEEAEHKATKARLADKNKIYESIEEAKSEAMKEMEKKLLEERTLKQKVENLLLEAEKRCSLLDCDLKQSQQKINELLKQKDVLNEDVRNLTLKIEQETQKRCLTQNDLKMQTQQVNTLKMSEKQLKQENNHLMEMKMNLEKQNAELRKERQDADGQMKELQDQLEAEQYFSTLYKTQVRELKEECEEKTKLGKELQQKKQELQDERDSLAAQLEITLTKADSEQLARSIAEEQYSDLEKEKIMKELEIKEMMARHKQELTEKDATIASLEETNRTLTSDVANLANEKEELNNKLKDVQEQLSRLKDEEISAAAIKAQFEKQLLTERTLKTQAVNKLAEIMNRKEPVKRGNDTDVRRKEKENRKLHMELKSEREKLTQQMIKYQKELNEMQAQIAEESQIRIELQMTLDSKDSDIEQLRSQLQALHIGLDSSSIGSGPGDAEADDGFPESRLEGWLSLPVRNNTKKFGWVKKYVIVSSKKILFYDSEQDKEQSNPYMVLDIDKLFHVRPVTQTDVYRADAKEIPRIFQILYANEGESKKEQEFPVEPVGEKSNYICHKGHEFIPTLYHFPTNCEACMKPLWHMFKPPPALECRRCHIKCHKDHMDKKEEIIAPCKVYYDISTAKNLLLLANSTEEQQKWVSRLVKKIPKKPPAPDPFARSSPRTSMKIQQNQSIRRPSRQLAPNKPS
By IC50 is commonly meant the concentration that gives 50% inhibition. Read a low IC50 as inhibition by little substance. As for `O=C(CCOc1ccccc1)Nc1ccc2c(c1)OCc1cnccc1-2` [Example I-2, N-(5H-chromeno[3,4-c]pyridin-8-yl)-3-phenoxypropanamide], the IC50 turned out to be 82.2 nM. Consider `N[C@@H](CCc1ccccc1)C(=O)Nc1ccc2c(c1)OCc1cnccc1-2` [Example I-3, (S)-2-amino-N-(5H-chromeno[3,4-c]pyridin-8-yl)-4-phenylbutanamide], for which the IC50 worked out at 284 nM.

Regarding `N[C@H](CCc1ccccc1)C(=O)Nc1ccc2c(c1)OCc1cnccc1-2` [Example I-4, (R)-2-amino-N-(5H-chromeno[3,4-c]pyridin-8-yl)-4-phenylbutanamide], the IC50 is 128 nM. As for `CC(C(=O)Nc1ccc2c(c1)OCc1cnccc1-2)c1ccccc1Cl` (centres unmarked) [Example I-5, 2-(2-chlorophenyl)-N-(5H-chromeno [3,4-c]pyridin-8-yl) propanamide], the figure is 33.5 nM; as for `O=C(Cc1ccc(F)cc1Cl)Nc1ccc2c(c1)OCc1cnccc1-2` [Example I-10, 2-(2-chloro-4-fluorophenyl)-N-(5H-chromeno[3,4-c]pyridin-8-yl)acetamide], 6.27 nM.

Take `O=C(Cc1cccc(Cl)c1)Nc1ccc2c(c1)OCc1cnccc1-2` [Example I-11, 2-(3-chlorophenyl)-N-(5H-chromeno [3,4-c]pyridin-8-yl) acetamide]: half-maximal inhibition (IC50) required 24.8 nM. Under `Cc1cccc(CC(=O)Nc2ccc3c(c2)OCc2cnccc2-3)c1` [Example I-12, N-(5H-chromeno[3,4-c]pyridin-8-yl)-2-m-tolylacetamide] stands 74.5 nM; under `O=C(Cc1ccc(Cl)cc1)Nc1ccc2c(c1)OCc1cnccc1-2` [Example I-13, 2-(4-chlorophenyl)-N-(5H-chromeno [3,4-c]pyridin-8-yl) acetamide], 134 nM.

The compound `O=C(Cc1ccc(Cl)cc1Cl)Nc1ccc2c(c1)OCc1cnccc1-2` [Example I-14, N-(5H-chromeno [3,4-c]pyridin-8-yl)-2-(2,4-dichlorophenyl) acetamide] gave an IC50 of 54.4 nM.

Take `Cc1ccccc1CC(=O)Nc1ccc2c(c1)OCc1cnccc1-2` [Example I-15, N-(5H-chromeno[3,4-c]pyridin-8-yl)-2-o-tolylacetamide]: it took 16.7 nM to reach half-maximal inhibition (IC50). Under `Cc1cc(C)cc(CC(=O)Nc2ccc3c(c2)OCc2cnccc2-3)c1` [Example I-16, N-(5H-chromeno[3,4-c]pyridin-8-yl)-2-(3,5-dimethylphenyl) acetamide] stands 110 nM; under `O=C(Cc1cc(F)cc(F)c1)Nc1ccc2c(c1)OCc1cnccc1-2` [Example I-17, N-(5H-chromeno[3,4-c]pyridin-8-yl)-2-(3,5-difluorophenyl) acetamide], 37.8 nM; under `COc1cc(CC(=O)Nc2ccc3c(c2)OCc2cnccc2-3)cc(OC)c1` [Example I-18, N-(5H-chromeno[3,4-c]pyridin-8-yl)-2-(3,5-dimethoxyphenyl) acetamide], 393 nM. Under `COc1ccc(CC(=O)Nc2ccc3c(c2)OCc2cnccc2-3)cc1OC` [Example I-19, N-(5H-chromeno[3,4-c]pyridin-8-yl)-2-(3,4-dimethoxyphenyl) acetamide] stands 2500 nM; under `CS(=O)(=O)c1ccc(CC(=O)Nc2ccc3c(c2)OCc2cnccc2-3)cc1` [Example I-20, N-(5H-chromeno[3,4-c]pyridin-8-yl)-2-(4-(methylsulfonyl)phenyl)acetamide], 1760 nM; under `O=C(Cc1c(Cl)cccc1Cl)Nc1ccc2c(c1)OCc1cnccc1-2` [Example I-21, N-(5H-chromeno[3,4-c]pyridin-8-yl)-2-(2,6-dichlorophenyl) acetamide], 161 nM. For `O=C(Cc1cccc(C(F)(F)F)c1)Nc1ccc2c(c1)OCc1cnccc1-2` [Example I-22, N-(5H-chromeno[3,4-c]pyridin-8-yl)-2-(3-(trifluoromethyl)phenyl)acetamide], the IC50 came to 159 nM. Under `O=C(Cc1cc(F)cc(C(F)(F)F)c1)Nc1ccc2c(c1)OCc1cnccc1-2` [Example I-23, N-(5H-chromeno[3,4-c]pyridin-8-yl)-2-(3-fluoro-5-(trifluoromethyl)phenyl)acetamide] stands 368 nM.

Compound `Cc1cc(F)ccc1CC(=O)Nc1ccc2c(c1)OCc1cnccc1-2` [Example I-24, N-(5H-chromeno[3,4-c]pyridin-8-yl)-2-(4-fluoro-2-methylphenyl) acetamide] registered an IC50 of 11.1 nM. As for `CSc1ccc(CC(=O)Nc2ccc3c(c2)OCc2cnccc2-3)cc1` [Example I-25, N-(5H-chromeno[3,4-c]pyridin-8-yl)-2-(4-(methylthio)phenyl) acetamide], the figure is 295 nM; as for `O=C(Cc1ccc(F)cc1)Nc1ccc2c(c1)OCc1cnccc1-2` [Example I-26, N-(5H-chromeno[3,4-c]pyridin-8-yl)-2-(4-fluorophenyl) acetamide], 38.7 nM; as for `N#Cc1ccc(-c2cnn(Cc3cccc(C(=O)Nc4ccc5c(c4)OCc4cnccc4-5)c3)c2)cc1` [Example I-27, N-(5H-chromeno[3,4-c]pyridin-8-yl)-3-((4-(4-cyanophenyl)-1H-pyrazol-1-yl)methyl)benzamide], 60.8 nM. As for `O=C(Nc1ccc2c(c1)OCc1cnccc1-2)c1ccc(F)cc1` [Example I-28, N-(5H-chromeno[3,4-c]pyridin-8-yl)-4-fluorobenzamide], the figure is 3440 nM; as for `CS(=O)(=O)c1ccc(C(=O)Nc2ccc3c(c2)OCc2cnccc2-3)cc1` [Example I-29, N-(5H-chromeno[3,4-c]pyridin-8-yl)-4-(methylsulfonyl) benzamide], 2050 nM; as for `O=C(Nc1ccc2c(c1)OCc1cnccc1-2)c1cnccn1` [Example I-30, N-(5H-chromeno[3,4-c]pyridin-8-yl) pyrazine-2-carboxamide], 2940 nM.

`COc1ccc(CC(=O)Nc2ccc3c(c2)OCc2cnccc2-3)cc1` [Example I-31, N-(5H-chromeno[3,4-c]pyridin-8-yl)-2-(4-methoxyphenyl) acetamide] yielded an IC50 of 497 nM. For `O=C(CCCc1ccccc1)Nc1ccc2c(c1)OCc1cnccc1-2` [Example I-32, N-(5H-chromeno[3,4-c]pyridin-8-yl)-4-phenylbutanamide], the IC50 turned out to be 682 nM.

In turn, `O=C(Cc1ccccn1)Nc1ccc2c(c1)OCc1cnccc1-2` [Example I-33, N-(5H-chromeno[3,4-c]pyridin-8-yl)-2-(pyridin-2-yl) acetamide] came in with an IC50 of 367 nM. `O=C(Cc1ccncc1)Nc1ccc2c(c1)OCc1cnccc1-2` [Example I-34, N-(5H-chromeno[3,4-c]pyridin-8-yl)-2-(pyridin-4-yl) acetamide] gave an IC50 of 207 nM. With `CC(=O)Nc1cccc(C(=O)Nc2ccc3c(c2)OCc2cnccc2-3)c1` [Example I-35, 3-acetamido-N-(5H-chromeno[3,4-c]pyridin-8-yl) benzamide], half-maximal inhibition (IC50) required 434 nM.

For `CC(C)(C(=O)Nc1ccc2c(c1)OCc1cnccc1-2)c1ccccc1` [Example I-36, N-(5H-chromeno [3,4-c]pyridin-8-yl)-2-methyl-2-phenylpropanamide], the half-maximal inhibitory concentration (IC50) was found to be 204 nM.

`O=C(CCc1ccc(Cl)cc1)Nc1ccc2c(c1)OCc1cnccc1-2` [Example I-37, 3-(4-chlorophenyl)-N-(5H-chromeno [3,4-c]pyridin-8-yl) propanamide] had an IC50 of 323 nM.
